According to paper PMC2717050, “Evaluation of expression and function of the H^+/myo-inositol transporter HMIT” (BMC Cell Biology, 2009):

Legend:
[1] = target: T1, HMIT triple mutant (H+/myo-inositol transporter) (Rattus norvegicus, UniProt Q921A2); experiment: whole-cell patch-clamp, inositol-evoked inward current; type: cell-based; conditions: extracellular pH 5.2; room temperature; Hill slope 1.0; transiently transfected HEK293/HEK293T cells
T1 construct: gene Slc2a13; stop codon deleted, C-terminal V5-His; pcDNA3.1/V5-His-TOPO; transient in HEK293/HEK293T cells
T1 sequence (Q921A2 1-637): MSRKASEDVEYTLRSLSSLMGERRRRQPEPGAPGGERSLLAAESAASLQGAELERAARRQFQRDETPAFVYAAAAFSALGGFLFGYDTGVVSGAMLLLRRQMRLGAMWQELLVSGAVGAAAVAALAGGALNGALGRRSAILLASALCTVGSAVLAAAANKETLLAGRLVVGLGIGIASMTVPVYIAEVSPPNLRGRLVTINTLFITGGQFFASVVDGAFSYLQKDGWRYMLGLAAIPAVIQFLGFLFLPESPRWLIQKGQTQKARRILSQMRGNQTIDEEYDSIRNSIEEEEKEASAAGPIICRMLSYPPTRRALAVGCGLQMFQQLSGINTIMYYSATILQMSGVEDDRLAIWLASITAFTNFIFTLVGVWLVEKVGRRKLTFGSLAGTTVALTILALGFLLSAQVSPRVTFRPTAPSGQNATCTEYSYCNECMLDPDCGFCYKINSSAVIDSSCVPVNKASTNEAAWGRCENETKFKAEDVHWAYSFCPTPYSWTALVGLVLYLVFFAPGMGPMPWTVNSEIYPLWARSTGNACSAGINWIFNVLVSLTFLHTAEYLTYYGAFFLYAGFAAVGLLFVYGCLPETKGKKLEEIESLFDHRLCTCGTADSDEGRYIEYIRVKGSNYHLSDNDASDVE

[2] = target: T1, HMIT triple mutant (H+/myo-inositol transporter); experiment: [3H]-myo-inositol uptake in HEK293T cells; type: cell-based; conditions: pH 6.0; 37 °C pre-incubation 10 min; 2 min uptake; non-selective inhibitor

| SMILES | EC50 [1] | % inhibition at 1 mM [2] |
| --- | --- | --- |
| O[C@H]1[C@H](O)[C@@H](O)[C@H](O)[C@@H](O)[C@H]1O [myo-inositol] | 2700 µM | – |
| O=C(CCc1ccc(O)cc1)c1c(O)cc(O)cc1O[C@@H]1O[C@H](CO)[C@@H](O)[C@H](O)[C@H]1O [phloridzin] | – | 53 ± 1.4% |
